The supplement of paper PMC10307832

Experiments:
Assay in all cases: relative viability (nuclei count vs DMSO), 5 days (fraction); higher = more cells survive
[1] = compound: NC1(c2ccc(-c3nc4ccn5c(=O)[nH]nc5c4cc3-c3ccccc3)cc2)CCC1 [MK-2206] + CS(=O)(=O)N1CCN(Cc2cc3nc(-c4cccc5[nH]ncc45)nc(N4CCOCC4)c3s2)CC1 [Pictilisib] (partner 1 µM)
Summary of the method: (§1)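 A single step with final 0.05% Triton X-100, 1% formaldehyde and 1 ug/ml Hoechst fixed the cells and stained nuclei 5 days after treatment. Lung cancer cell lines in 1536-well plates had been treated by pin tool the day after seeding with one drug alone or a fixed anchor-drug dose plus five library-drug doses (not always all listed) in √10 steps, and nuclei were counted on 4× images. Relative viability is the ratio of nuclei in treated wells to nuclei in vehicle wells, taken as the median of duplicate plates.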

[2] = compound: NC1(c2ccc(-c3nc4ccn5c(=O)[nH]nc5c4cc3-c3ccccc3)cc2)CCC1 [MK-2206] + CC(=O)c1c(C)c2cnc(Nc3ccc(N4CCNCC4)cn3)nc2n(C2CCCC2)c1=O [Palbociclib] (partner 0.5 µM)
Summary of the method: as §1

[3] = compound: CS(=O)(=O)N1CCN(Cc2cc3nc(-c4cccc5[nH]ncc45)nc(N4CCOCC4)c3s2)CC1 [Pictilisib] + N=C(N)NC(=N)NCCc1ccccc1 [Phenformin] (partner 250 µM)
Summary of the method: as §1

[4] = compound: NC1(c2ccc(-c3nc4ccn5c(=O)[nH]nc5c4cc3-c3ccccc3)cc2)CCC1 [MK-2206] + O=C(c1cc(Cc2n[nH]c(=O)c3ccccc23)ccc1F)N1CCN(C(=O)C2CC2)CC1 [Olaparib] (partner 8 µM)
Summary of the method: as §1

[5] = compound: CS(=O)(=O)N1CCN(Cc2cc3nc(-c4cccc5[nH]ncc45)nc(N4CCOCC4)c3s2)CC1 [Pictilisib] + O=C(CCCCCCC(=O)Nc1ccccc1)NO [Vorinostat] (partner 1 µM)
Summary of the method: as §1

Cell Line	relative viability ([1]; first compound 0.01 µM)	relative viability ([1]; first compound 0.03162 µM)	relative viability ([1]; first compound 0.3162 µM)	relative viability ([1]; first compound 1 µM)	relative viability ([2]; first compound 0.01 µM)	relative viability ([2]; first compound 0.03162 µM)	relative viability ([2]; first compound 0.3162 µM)	relative viability ([2]; first compound 1 µM)	relative viability ([3]; first compound 0.02 µM)	relative viability ([3]; first compound 0.06325 µM)	relative viability ([3]; first compound 0.6325 µM)	relative viability ([3]; first compound 2 µM)	relative viability ([4]; first compound 0.01 µM)	relative viability ([4]; first compound 0.03162 µM)	relative viability ([4]; first compound 0.3162 µM)	relative viability ([4]; first compound 1 µM)	relative viability ([5]; first compound 0.02 µM)	relative viability ([5]; first compound 0.06325 µM)	relative viability ([5]; first compound 0.6325 µM)	relative viability ([5]; first compound 2 µM)
SW 1573	0.453	0.548	0.424	0.457	0.571	0.335	0.294	0.298	0.387	0.318	0.215	0.166	0.5	0.466	0.396	0.393	0.767	0.733	0.35	0.217
COR-L23	0.816	0.834	0.741	0.686	0.277	0.312	0.268	0.291	0.428	0.471	0.522	0.424	0.32	0.31	0.297	0.328	0.491	0.407	0.386	0.286
NCI-H1755	0.47	0.48	0.36	0.4	0.461	0.419	0.388	0.43	0.654	0.594	0.401	0.357	0.875	0.929	0.901	0.825	0.795	0.812	0.642	0.354
LOU-NH91	0.551	0.479	0.461	0.474	0.531	0.46	0.507	0.547	0.773	0.812	0.609	0.461	0.901	0.98	0.91	0.847	1.09	0.901	0.797	0.651
EMC-BAC-2	0.54	0.574	0.515	0.441	0.511	0.517	0.462	0.456	0.604	0.515	0.432	0.335	0.438	0.462	0.451	0.419	0.88	0.615	0.337	0.286
ChaGo-K-1	0.914	0.981	0.692	0.401	0.961	0.98	0.937	0.932	0.438	0.529	0.42	0.33	0.404	0.422	0.413	0.429	0.797	0.773	0.64	0.609
NCI-H2023	0.231	0.197	0.206	0.191	0.39	0.347	0.297	0.208	0.43	0.376	0.275	0.169	0.463	0.506	0.436	0.44	0.685	0.662	0.35	0.178
EKVX	0.415	0.447	0.424	0.445	0.542	0.458	0.363	0.352	0.228	0.256	0.211	0.178	0.866	0.777	0.745	0.67	0.734	0.538	0.56	0.254
NCI-H2085	0.516	0.415	0.416	0.438	0.433	0.558	0.397	0.522	0.725	0.688	0.387	0.291	0.778	0.858	0.786	0.732	0.792	0.832	0.498	0.319
NCI-H3122	0.542	0.558	0.491	0.434	0.187	0.179	0.201	0.193	0.402	0.4	0.394	0.284	0.681	0.687	0.656	0.63	0.91	0.965	0.759	0.504
HCC-827	0.982	1.11	0.899	1.01	0.568	0.542	0.292	0.344	0.423	0.419	0.376	0.306	0.671	0.678	0.506	0.523	0.827	0.811	0.829	0.559
HARA	0.388	0.395	0.399	0.357	0.268	0.343	0.27	0.221	0.454	0.469	0.37	0.244	0.842	0.779	0.758	0.625	0.712	0.35	0.299	0.239
NCI-H441	0.501	0.467	0.424	0.48	0.226	0.206	0.207	0.167	0.822	0.789	0.601	0.337	0.588	0.622	0.541	0.338	0.972	0.682	0.607	0.457
SK-MES-1	0.37	0.34	0.354	0.352	0.327	0.296	0.289	0.256	0.692	0.686	0.621	0.558	0.635	0.727	0.692	0.482	1.11	1.12	0.856	0.511
HCC-15	0.727	0.785	0.643	0.626	0.695	0.792	0.662	0.653	0.506	0.504	0.346	0.261	0.722	0.757	0.625	0.692	0.841	0.818	0.707	0.535
ABC-1	0.629	0.728	0.721	0.701	0.809	0.669	0.641	0.605	0.254	0.214	0.195	0.209	0.898	0.841	1.1	1.08	0.83	1.07	0.859	0.691

Cell Line	relative viability ([1]; first compound 0.01 µM)	relative viability ([1]; first compound 0.03162 µM)	relative viability ([1]; first compound 0.3162 µM)	relative viability ([1]; first compound 1 µM)	relative viability ([2]; first compound 0.01 µM)	relative viability ([2]; first compound 0.03162 µM)	relative viability ([2]; first compound 0.3162 µM)	relative viability ([2]; first compound 1 µM)	relative viability ([3]; first compound 0.02 µM)	relative viability ([3]; first compound 0.06325 µM)	relative viability ([3]; first compound 0.6325 µM)	relative viability ([3]; first compound 2 µM)	relative viability ([4]; first compound 0.01 µM)	relative viability ([4]; first compound 0.03162 µM)	relative viability ([4]; first compound 0.3162 µM)	relative viability ([4]; first compound 1 µM)	relative viability ([5]; first compound 0.02 µM)	relative viability ([5]; first compound 0.06325 µM)	relative viability ([5]; first compound 0.6325 µM)	relative viability ([5]; first compound 2 µM)
EPLC-272H	0.292	0.333	–	0.336	0.32	0.287	0.315	0.328	0.284	0.323	0.23	0.197	0.855	0.673	0.796	0.527	0.477	0.403	0.449	0.23
NCI-H2009	0.717	1.02	0.831	0.865	0.139	0.25	0.179	0.177	0.501	0.504	0.438	0.365	0.703	0.662	0.701	0.704	0.766	0.723	0.645	0.5
NCI-H661	0.431	0.422	0.511	0.312	0.428	0.42	0.354	0.349	0.302	0.282	0.269	0.216	0.768	0.751	0.763	0.738	0.857	0.826	0.936	0.745
NCI-H520	0.275	0.228	0.276	0.223	0.215	0.218	0.153	0.149	0.613	0.516	0.19	0.2	0.359	0.331	0.228	0.195	0.794	0.73	0.353	0.203
NCI-H2405	0.418	0.421	0.361	0.282	0.512	0.534	0.532	0.481	0.4	0.386	0.364	0.23	0.837	0.899	0.875	0.825	1.26	1.06	0.842	0.432
LCLC-97TM1	0.231	0.259	0.131	0.164	0.264	0.233	0.191	0.198	0.435	0.415	0.398	0.194	0.381	0.351	0.273	0.234	0.712	0.658	0.619	0.212
NCI-H727	0.47	0.413	0.36	0.254	0.775	0.658	0.638	0.625	0.564	0.529	0.554	0.38	0.696	0.674	0.716	0.675	1.04	1.29	1.11	0.867
NCI-H2228	0.356	0.455	0.198	0.297	0.586	0.848	0.487	0.725	0.335	0.38	0.18	0.141	0.832	0.594	0.464	0.417	0.524	0.72	0.434	0.253
LK-2	0.684	0.707	0.583	0.667	0.605	0.881	0.68	0.457	0.468	0.379	0.176	0.143	0.822	0.852	0.664	0.467	0.292	0.291	0.214	0.139
PC-3 [JPC-3]	0.774	0.874	0.776	0.676	0.5	0.509	0.535	0.519	0.493	0.539	0.487	0.405	1.09	1.12	1.18	1.12	0.953	0.548	0.613	0.418
NCI-H460	0.355	0.307	0.294	0.222	0.137	0.224	0.142	0.0552	0.549	0.534	0.266	0.0575	0.397	0.465	0.484	0.5	0.796	0.757	0.842	0.155
NCI-H647	0.455	0.452	0.354	0.273	0.389	0.403	0.349	0.264	0.667	0.698	0.291	0.227	0.568	0.559	0.662	0.388	0.532	0.795	0.515	0.276
NCI-H838	0.517	0.436	0.464	0.42	0.223	0.226	0.203	0.193	0.541	0.628	0.329	0.224	0.768	0.857	0.767	0.685	0.731	0.632	0.648	0.53
PC-14	0.635	0.627	0.648	0.514	0.512	0.481	0.589	0.474	0.858	0.719	0.621	0.386	0.274	0.313	0.371	0.354	0.72	0.661	0.534	0.325
NCI-H358	0.378	0.333	0.355	0.347	0.16	0.124	0.138	0.141	0.348	0.38	0.207	0.151	0.61	0.641	0.541	0.56	0.816	0.693	0.603	0.264
